Legend:
giant foxtail = assay: Test A preemergence; type: in vivo, Setaria faberii
Procedure, shortened: (§1)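 Visual injury scored 0–100 (100 = complete control) against untreated controls about 10 days after treatment in a greenhouse. Test chemicals, formulated with surfactant in non-phytotoxic solvent, were sprayed on soil preemergence or on 2-10 cm, one- to two-leaf plants postemergence.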

morningglory = assay: Test A preemergence; type: in vivo, Ipomoea spp.
Procedure, shortened: as §1

pigweed = assay: Test A preemergence; type: in vivo, Amaranthus retroflexus
Procedure, shortened: as §1

velvetleaf = assay: Test A postemergence; type: in vivo, Abutilon theophrasti
Procedure, shortened: as §1

wheat = assay: Test A postemergence; type: in vivo, Triticum aestivum
Procedure, shortened: as §1

barnyardgrass = assay: Test B flooded paddy test; type: in vivo, Echinochloa crus-galli; settings: Flood, 250 g ai/ha, 0 to 100 scale where 0 is no effect and 100 is complete control
Procedure, shortened: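 Plants at 2-leaf stage; pots flooded to 3 cm above soil and compound applied directly into paddy water, depth held throughout. After 13 to 15 days in greenhouse, visual rating versus controls on 0 (no effect) to 100 (complete control) scale.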

wheat, winter = assay: Test C postemergence; type: in vivo, Triticum aestivum
From the text: (§2) Seeds of plant species selected from blackgrass (Alopecurus myosuroides), Italian ryegrass (Lolium multiflorum), wheat, winter (winter wheat, Triticum aestivum), galium (catchweed bedstraw, Galium aparine), corn (Zea mays), large (Lg) crabgrass (Digitaria sanguinalis), giant foxtail (Setaria faberii), johnsongrass (Sorghum halepense), lambsquarters (Chenopodium album), morningglory (Ipomoea coccinea), yellow nutsedge (Cyperus esculentus), pigweed (Amaranthus retroflexus), ragweed (common ragweed, Ambrosia elatior), soybean (Glycine max), barnyardgrass (Echinochloa crus-galli), oilseed rape (Brassica napus), waterhemp (common waterhemp, Amaranthus rudis), kochia (Kochia scoparia), wild oat (Avena fatua), surinam grass (Brachiaria decumbens), foxtail, green (green foxtail, Setaria viridis), goosegrass (Eleusine indica), bromegrass, downy (downy bromegrass, Bromus tectorum), nightshade (eastern black nightshade, Solanum ptycanthum), cocklebur (common cocklebur, Xanthium strumarium), cupgrass, woolly (woolly cupgrass, Eriochloa villosa), bermudagrass (Cynodon dactylon), sunflower, (common oilseed sunflower, Helianthus annuus), Russian thistle (Salsola kali), and velvetleaf (Abutilon theophrasti) were planted into a blend of loam soil and sand and treated preemergence with test chemicals formulated in a non-phytotoxic solvent mixture which included a surfactant.
(§3) At the same time, plants selected from these crop and weed species and also barley, winter (winter barley, Hordeum vulgare), windgrass (Apera spica-venti), chickweed (common chickweed, Stellaria media), deadnettle (henbit deadnettle, Lamium amplexicaule), and canarygrass (littleseed canarygrass, Phalaris minor) were planted in pots containing Redi-Earth® planting medium (Scotts Company, 14111 Scottslawn Road, Marysville, Ohio 43041) comprising spaghnum peat moss, vermiculite, wetting agent and starter nutrients and treated with postemergence applications of test chemicals formulated in the same manner. Plants ranged in height from 2 to 18 cm (1- to 4-leaf stage) for postemergence treatments. Treated plants and controls were maintained in a greenhouse for 13 to 15 days, after which time all species were compared to controls and visually evaluated. Plant response ratings, summarized in Table C, are based on a scale of 0 to 100 where 0 is no effect and 100 is complete control. A dash (-) response means no test result.

kochia = assay: Test C postemergence; type: in vivo, Kochia scoparia
From the text: as §2, §3

wild oat = assay: Test C postemergence; type: in vivo, Avena fatua
Procedure, shortened: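 Seeds were sown in loam–sand blend and sprayed preemergence, while plants at 1- to 4-leaf stage (2–18 cm) in peat-based medium received postemergence sprays; test chemicals were formulated in a non-phytotoxic solvent with surfactant. After 13–15 days in a greenhouse, injury was rated visually against controls, 0 (no effect) to 100 (complete control).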

chickweed = assay: Test C postemergence; type: in vivo, Stellaria media
From the text: as §2, §3

[1] = 125 g ai/ha, 0 to 100 scale where 0 is no effect and 100 is complete control
[2] = 500 g ai/ha, 0 to 100 scale, 0 no effect, 100 complete control, approx. 10 days
[3] = 500 g ai/ha, 0 to 100 scale, 0 no effect, 100 complete control
[4] = Postemergence, 31 g ai/ha, scale 0 to 100 (0 no effect, 100 complete control), 13 to 15 days
[5] = Postemergence, 62 g ai/ha, scale 0 to 100 (0 no effect, 100 complete control)

Clc1cnn(-c2ccccc2Oc2ncc(Br)cn2)c1 [Compound 5, 5-bromo-2-[2-(4-chloro-1H-pyrazol-1-yl)phenoxy]pyrimidine]
pest or weed control at 125 g/ha (giant foxtail; Setaria faberi, pre-emergence, 240 h, 125 g ai/ha, 0 to 100 scale where 0 is no effect and 100 is complete control, read-out: Foxtail, Giant plant response rating): 90% | pest or weed control at 500 g/ha (giant foxtail; Setaria faberi, pre-emergence, 240 h, 500 g ai/ha, 0 to 100 scale, 0 no effect, 100 complete control, approx. 10 days, read-out: Foxtail, Giant plant response rating): 100% | pest or weed control at 125 g/ha (morningglory; Ipomoea, pre-emergence, 240 h, 125 g ai/ha, 0 to 100 scale where 0 is no effect and 100 is complete control, read-out: Morningglory plant response rating): 0% | pest or weed control at 500 g/ha (morningglory; Ipomoea, pre-emergence, 240 h, 500 g ai/ha, 0 to 100 scale, 0 no effect, 100 complete control, approx. 10 days, read-out: Morningglory plant response rating): 20% | pest or weed control at 125 g/ha (pigweed; Amaranthus retroflexus, pre-emergence, 240 h, 125 g ai/ha, 0 to 100 scale where 0 is no effect and 100 is complete control, read-out: Pigweed plant response rating): 100% | pest or weed control at 500 g/ha (pigweed; Amaranthus retroflexus, pre-emergence, 240 h, 500 g ai/ha, 0 to 100 scale, 0 no effect, 100 complete control, approx. 10 days, read-out: Pigweed plant response rating): 100% | pest or weed control at 125 g/ha (velvetleaf; Abutilon theophrasti, post-emergence, 240 h, 125 g ai/ha, 0 to 100 scale where 0 is no effect and 100 is complete control, read-out: Plant response rating, Velvetleaf): 100% | pest or weed control at 500 g/ha (velvetleaf; Abutilon theophrasti, post-emergence, 240 h, 500 g ai/ha, 0 to 100 scale, 0 no effect, 100 complete control, read-out: Plant response rating Velvetleaf): 100% | plant injury at 125 g/ha (wheat; Triticum aestivum, post-emergence, 240 h, 125 g ai/ha, 0 to 100 scale where 0 is no effect and 100 is complete control, read-out: Plant response rating, Wheat): 0% | plant injury at 500 g/ha (wheat; Triticum aestivum, post-emergence, 240 h, 500 g ai/ha, 0 to 100 scale, 0 no effect, 100 complete control, read-out: Plant response rating Wheat): 40% | pest or weed control at 250 g/ha (barnyardgrass; Echinochloa crus-galli, read-out: Plant response rating, Barnyardgrass): 0% | plant injury at 125 g/ha (wheat, winter; Triticum aestivum, post-emergence, 125 g ai/ha, postemergence, read-out: Plant response rating (0 to 100), Wheat): 10% | plant injury at 250 g/ha (wheat, winter; Triticum aestivum, post-emergence, 250 g ai/ha, postemergence, read-out: Plant response rating (0 to 100), Wheat): 40% | plant injury at 31 g/ha (wheat, winter; Triticum aestivum, post-emergence, Postemergence, 31 g ai/ha, scale 0 to 100 (0 no effect, 100 complete control), 13 to 15 days, read-out: Plant response rating, Wheat): 0% | plant injury at 62 g/ha (wheat, winter; Triticum aestivum, post-emergence, Postemergence, 62 g ai/ha, scale 0 to 100 (0 no effect, 100 complete control), read-out: Plant response rating, Wheat): 5% | pest or weed control at 125 g/ha (kochia; Bassia scoparia, post-emergence, 125 g ai/ha, postemergence, read-out: Plant response rating (0 to 100), Kochia): 70% | pest or weed control at 250 g/ha (kochia; Bassia scoparia, post-emergence, 250 g ai/ha, postemergence, read-out: Plant response rating (0 to 100), Kochia): 100% | pest or weed control at 31 g/ha (kochia; Bassia scoparia, post-emergence, Postemergence, 31 g ai/ha, scale 0 to 100 (0 no effect, 100 complete control), 13 to 15 days, read-out: Plant response rating, Kochia): 20% | pest or weed control at 62 g/ha (kochia; Bassia scoparia, post-emergence, Postemergence, 62 g ai/ha, scale 0 to 100 (0 no effect, 100 complete control), read-out: Plant response rating, Kochia): 55% | pest or weed control at 125 g/ha (wild oat; Avena fatua, post-emergence, 125 g ai/ha, postemergence, read-out: Plant response rating (0 to 100), Oat, Wild): 10% | pest or weed control at 250 g/ha (wild oat; Avena fatua, post-emergence, 250 g ai/ha, postemergence, read-out: Plant response rating (0 to 100), Oat, Wild): 30% | pest or weed control at 31 g/ha (wild oat; Avena fatua, post-emergence, Postemergence, 31 g ai/ha, scale 0 to 100 (0 no effect, 100 complete control), 13 to 15 days, read-out: Plant response rating, Oat, Wild): 0% | pest or weed control at 62 g/ha (wild oat; Avena fatua, post-emergence, Postemergence, 62 g ai/ha, scale 0 to 100 (0 no effect, 100 complete control), read-out: Plant response rating, Oat, Wild): 5% | pest or weed control at 250 g/ha (chickweed; Stellaria media, post-emergence, 250 g ai/ha, postemergence, read-out: Plant response rating (0 to 100), Chickweed): 45% | pest or weed control at 31 g/ha (chickweed; Stellaria media, post-emergence, Postemergence, 31 g ai/ha, scale 0 to 100 (0 no effect, 100 complete control), 13 to 15 days, read-out: Plant response rating, Chickweed): 5% | pest or weed control at 62 g/ha (chickweed; Stellaria media, post-emergence, Postemergence, 62 g ai/ha, scale 0 to 100 (0 no effect, 100 complete control), read-out: Plant response rating, Chickweed): 15%

Fc1cnc(Oc2ccccc2-n2cc(C(F)(F)F)cn2)nc1 [Compound 47]
Plant response rating, Foxtail, Giant (giant foxtail; [1]): 100 | Foxtail, Giant plant response rating (giant foxtail; [2]): 100 | Plant response rating, Morningglory (morningglory; [1]): 0 | Morningglory plant response rating (morningglory; [2]): 100 | Plant response rating, Pigweed (pigweed; [1]): 100 | Pigweed plant response rating (pigweed; [2]): 100 | Plant response rating, Velvetleaf (velvetleaf; [1]): 100 | Plant response rating, Velvetleaf (velvetleaf; [3]): 100 | Plant response rating, Wheat (wheat; [1]): 60 | Plant response rating, Wheat (wheat; [3]): 100 | Plant response rating, Barnyardgrass (barnyardgrass): 10 | Plant response rating (0 to 100), Wheat (wheat, winter; 125 g ai/ha, postemergence): 0 | Plant response rating (0 to 100), Wheat (wheat, winter; 250 g ai/ha, postemergence): 0 | Plant response rating, Wheat (wheat, winter; [4]): 0 | Plant response rating, Wheat (wheat, winter; [5]): 0 | Plant response rating (0 to 100), Kochia (kochia; 125 g ai/ha, postemergence): 25 | Plant response rating (0 to 100), Kochia (kochia; 250 g ai/ha, postemergence): 60 | Plant response rating, Kochia (kochia; [4]): 5 | Plant response rating, Kochia (kochia; [5]): 10 | Plant response rating (0 to 100), Oat, Wild (wild oat; 125 g ai/ha, postemergence): 0 | Plant response rating (0 to 100), Oat, Wild (wild oat; 250 g ai/ha, postemergence): 5 | Plant response rating, Oat, Wild (wild oat; [4]): 0 | Plant response rating, Oat, Wild (wild oat; [5]): 0 | Plant response rating (0 to 100), Chickweed (chickweed; 125 g ai/ha, postemergence): 50 | Plant response rating (0 to 100), Chickweed (chickweed; 250 g ai/ha, postemergence): 50 | Plant response rating, Chickweed (chickweed; [4]): 5 | Plant response rating, Chickweed (chickweed; [5]): 5

— patent US9695155B2, “Herbicidal substituted pyrimidinyloxy benzene compounds” (E. I. DU PONT DE NEMOURS AND COMPANY, priority 2013, dated 2017)
